In a melting point compilation (Tetko et al.) one finds melting point data, which are given here for 121 compounds.

The compound `NS(=O)(=O)c1ccc(C(=O)CBr)cc1` gave a melting point of 149 to 151 °C.

With `Cc1ccc2c(c1)C(=NO)C(=O)N2`, the melting point lay within 239 to 241 °C. The result for `Cc1ccc(-c2nn(-c3ccccc3)cc2/C=C(\C#N)C(=O)O)cc1` reads 295 to 297 °C. The result for `Cc1nc2cc(F)ccc2cc1C(=O)O` reads 262 to 264 °C. The result for `O=Cc1ccc([N+](=O)[O-])c(O)c1` reads 132 to 134 °C. On to `NC(=O)c1ccccc1OCc1cccc(C(=O)O)c1`, for which the melting point lay in the range of 238 to 240 °C. The result for `O=c1[nH]cnc2sc3c(c12)CCCCC3` reads 107 to 109 °C; that for `NC(=S)C1CCCC1`, 84 to 86 °C. To `O=C(O)c1cc2cccc(C(F)(F)F)c2[nH]1` belongs 179 to 181 °C; to `O=c1ccc(-n2cncn2)n[nH]1`, 240 to 242 °C. The result for `N#Cc1nnc2ccccc2c1N` reads 319 to 321 °C; that for `c1ccc2sc(NCC3CCCO3)nc2c1` (stereo unspecified), 130 to 132 °C; that for `Nc1cc(-c2cccc(Cl)c2)nn1-c1ccccc1`, 118 to 120 °C.

For the compound `O=C(O)c1c[nH]nn1`, the melting point is 212 to 214 °C. To `CC(O)(Cc1ccccc1)C(=O)O` (stereo unspecified) belongs 90 to 92 °C. To `CC(C)(C)c1nn(-c2ccccc2)cc1C(=O)O` belongs 212 to 214 °C; to `O=C(O)c1cccc(N2C(=O)CCC2=O)c1`, 237 to 239 °C; to `O=C1NC2(CCCC2)C(=O)N1Cc1ccc(Cl)nc1`, 169 to 171 °C. To `COCCn1cc(S(=O)(=O)Cl)cn1` belongs 35 to 37 °C; to `Sc1nnc(NC2CCCCC2)s1`, 144 to 146 °C. Consider `O=C1Cn2ccnc2CN1`, for which the melting point was in the range of 179 to 181 °C. The result for `O=C(O)C1CCCS1` (stereo unspecified) reads 48 to 50 °C; that for `Cc1sc(C(=O)O)cc1CS(C)(=O)=O`, 233 to 235 °C. To `CS(=O)(=O)Nc1ccc(S(=O)(=O)Cl)c(F)c1` belongs 149 to 151 °C; to `Nc1cc(-c2ccccc2Br)no1`, 74 to 76 °C. The result for `CC(Cl)c1nc2scc(-c3cccs3)c2c(=O)[nH]1` (stereo unspecified) reads 241 to 243 °C; that for `CNc1ccncn1`, 77 to 79 °C; that for `CC(C(=O)O)c1cccc(Cl)c1` (stereo unspecified), 75 to 77 °C. Compound `CCOC(=O)C1=NN(c2ccccc2)C(C#N)C1` (stereo unspecified) yielded a melting point of 99 to 101 °C. The result for `O=S(=O)(c1ccc(Cl)c(C(F)(F)F)c1)N1CCNCC1` reads 292 to 295 °C; that for `Fc1cc2nc(CCl)[nH]c2cc1F`, 150 to 152 °C. As for `O=C(O)CCS(=O)(=O)Nc1ccccc1`, the melting point lay in the range of 127 to 129 °C.

Turning to `O=C(O)c1ccc(Oc2ccc(F)c(F)c2)cc1`, the melting point was 156 to 158 °C. To `Cc1ccc(CNC(=S)Nc2ccccc2)cc1` belongs 147 to 149 °C. `O=C(Nc1cccc2ccccc12)OCC(F)(F)F` gave a melting point of 109 to 111 °C.

Compound `COC(=O)NCC(=O)O` yielded a melting point of 93 to 95 °C.

Compound `NS(=O)(=O)c1ccc(S(=O)(=O)Cl)c(F)c1` showed a melting point of 111 to 113 °C.

Take `O=C(O)CCC1NC(=O)N(c2ccc(Cl)c(Cl)c2)C1=O` (stereo unspecified): the melting point was in the range of 173 to 175 °C.

The compound `Nc1ccc(-c2cncnc2)cc1` gave a melting point of 208 to 210 °C. Consider `COc1ccc(COCC(=O)O)cc1`, for which the melting point lay within 41 to 43 °C.

Take `c1ccc2c(c1)NCCCS2`: the melting point lay within 22 to 24 °C. With `CC(=O)N1CCCc2cc(S(=O)(=O)Cl)ccc21`, the melting point was 127 to 129 °C. The result for `FC(F)(F)c1ccccc1-c1nnc(CCl)o1` reads 35 to 37 °C; that for `OCc1ccc2cn[nH]c2c1`, 158 to 160 °C.

`CC(C)N1C(=O)C(=O)c2ccccc21`: the melting point fell in the range of 77 to 79 °C.

`NS(=O)(=O)c1ccc(CCn2c(S)nc3ccccc3c2=O)cc1` displayed a melting point of 294 to 296 °C. To `NNC(=O)c1ccc(S(=O)(=O)N2CCCC2)cc1` belongs 199 to 201 °C. To `O=C(CCl)Nc1ccccc1C(=O)Nc1ccc2c(c1)OCO2` belongs 169 to 171 °C; to `N#Cc1cc(N)ccc1Oc1ccc(C(F)(F)F)cc1`, 75 to 77 °C.

Compound `Nc1ccc(C(=O)O)cc1CCCC(=O)O` displayed a melting point of 203 to 205 °C. The result for `Nc1sc2c(c1C(=O)c1cccc(F)c1)CCCC2` reads 110 to 114 °C. As to `c1cnc2c(NC3CCC3)cccc2c1`, the melting point was 48 to 50 °C. To `CCOC(=O)c1cc(C2CC2)[nH]n1` belongs 98 to 100 °C; to `O=C(Nc1ccccn1)C1CCCNC1` (stereo unspecified), 94 to 96 °C; to `ClCc1csc(COc2ccccc2)n1`, 49 to 51 °C. To `CC(CS(=O)(=O)c1ccc(F)cc1)C(=O)O` (stereo unspecified) belongs 128 to 130 °C.

Regarding `Cc1nn(C)c(C)c1CC(=O)O`, the melting point fell in the range of 223 to 225 °C. The result for `O=c1c2ccccc2nc(S)n1-c1ccc(Cl)cc1` reads 336 to 338 °C; that for `CCC(Br)C(N)=O` (stereo unspecified), 108 to 110 °C; that for `CS(=O)(=O)Nc1ccccc1Br`, 79 to 81 °C.

The compound `O=C(O)c1cc(S(=O)(=O)Cl)c(Cl)cc1F` showed a melting point of 144 to 146 °C. The result for `[N-]=[N+]=NC(C(=O)NC1CC1)c1ccc(F)cc1` (stereo unspecified) reads 53 to 55 °C; that for `CS/C(=N\C#N)N1CCOCC1`, 126 to 128 °C. The result for `COc1cc(OC)c2c(-c3ccccc3)cc(S)nc2c1` reads 230 to 232 °C; that for `NC(=O)c1ccc(CCl)cc1`, 178 to 180 °C; that for `CN(C)S(=O)(=O)c1ccc2c(c1)NCC2`, 121 to 123 °C.

`O=c1[nH]nc(Br)c(=O)[nH]1` yielded a melting point of 188 to 190 °C.

For `CCOC(=O)/C(C#N)=C/Nc1ccc(OCC)cc1`, the melting point was 115 to 117 °C.

As for `CCN(CC)S(=O)(=O)c1ccc(NN)nc1`, the melting point was in the range of 134 to 136 °C. The result for `CN(C)S(=O)(=O)c1cccc(C#N)c1` reads 128 to 130 °C; that for `O=C(O)C(=O)c1ccc(Cl)cc1`, 87 to 89 °C; that for `Nc1c(-c2ccccc2)nc2sccn12`, 148 to 152 °C. To `NS(=O)(=O)c1ccc(CCNC(=O)CCl)cc1` belongs 145 to 148 °C; to `Cc1cc(Br)cc(C=O)c1O`, 68 to 70 °C. The result for `O=C(O)C1(Cc2cccc(Cl)c2)CCCC1` reads 60 to 62 °C. In turn, `CN(C)c1nc(=NN)cc[nH]1` registered a melting point of 144 to 146 °C. To `COc1ccc(C2C(C(=O)O)CCC(=O)N2c2ccc(C)cc2)cc1` (stereo unspecified) belongs 201 to 203 °C; to `CCCn1cnc2c1c(=O)[nH]c(=O)n2C`, 256 to 258 °C.

`CSc1cnn(-c2ccccc2)c1N`: the melting point lay within 77 to 79 °C. With `N#Cc1cccc(C(=O)NCc2ccco2)c1`, the melting point fell in the range of 86 to 88 °C.

For `Oc1ccc(-c2nc3cc(C(F)(F)F)ccc3s2)cc1`, the melting point was 182 to 184 °C.

Compound `O=Cc1cc([N+](=O)[O-])ccc1OC(F)F` gave a melting point of 46 to 48 °C. Turning to `Cc1[nH]c2c(Cl)cccc2c1C=O`, the melting point was in the range of 229 to 231 °C.

Consider `COc1ccccc1NC(=O)Nc1cc(N)ccc1OC`, for which the melting point fell in the range of 167 to 169 °C. To `CC(CC(=O)O)c1cccc(C(F)(F)F)c1` (stereo unspecified) belongs 83 to 85 °C. The result for `Nc1ccc(Br)c2ccccc12` reads 102 to 104 °C. The result for `Ic1nnc(-c2ccccc2)s1` reads 105 to 107 °C; that for `Cc1ccc(-c2ccsc2C(=O)O)cc1`, 134 to 136 °C; that for `Cc1ccc(-n2cc(C(=O)O)c(-c3ccccc3)n2)cc1`, 194 to 196 °C.

Compound `COc1cc(I)c(Cl)cc1C(=O)O` gave a melting point of 141 to 143 °C.

As to `CC1C(=O)NC(=O)C1C` (stereo unspecified), the melting point fell in the range of 56 to 58 °C. `Cc1ccc(C(=O)NC(CC(=O)O)c2ccccc2)cc1` (stereo unspecified) returned a melting point of 190 to 192 °C. The result for `Cc1cc(=O)n2c([nH]c3ccccc32)c1C#N` reads 270 to 272 °C. The result for `Brc1ccn2nccc2n1` reads 131 to 133 °C; that for `CNC(=O)c1ccn(-c2ccc(N)cc2)n1`, 152 to 154 °C.

Consider `COc1ccc(OC)c2[nH]c(C(=O)O)cc12`, for which the melting point lay in the range of 201 to 203 °C. The result for `O=C1c2ccccc2C(=O)N1CCc1ncc[nH]1` reads 243 to 245 °C; that for `COC(C)C(N)=S` (stereo unspecified), 58 to 60 °C. The result for `Cn1c(=O)c2ccccc2n2cc3ccccc3c12` reads 164 to 166 °C. To `NS(=O)(=O)c1ccc(N2CCNCC2)cc1` belongs 219 to 221 °C; to `Cc1cccc(/C=C/c2cc(C(=O)O)c3cc(Br)ccc3n2)c1`, 286 to 288 °C; to `CN1CCC(C(=O)O)CC1=O` (stereo unspecified), 163 to 165 °C. `NNC(=S)Nc1ccccc1F` showed a melting point of 159 to 161 °C. To `COC(=O)c1ccc(C(=O)OC)c(NC(=O)C(C)Cl)c1` (stereo unspecified) belongs 128 to 130 °C. The result for `COc1cc(N)cc(Br)c1` reads 39 to 41 °C; that for `Nc1ccc2c(cnn2C(F)F)c1`, 77 to 79 °C; that for `O=[N+]([O-])c1ccc(OCC(F)(F)F)cc1`, 73 to 75 °C.

In turn, `Cn1c(C(=O)O)c(Cl)c2cc(Br)ccc21` registered a melting point of 250 to 252 °C. As to `O=C(O)CNC(=O)COc1ccccc1`, the melting point lay in the range of 89 to 91 °C. The result for `NCC(O)c1ccccc1F` (stereo unspecified) reads 62 to 64 °C; that for `CCOc1ccc(Cl)c(C(=O)O)n1`, 127 to 129 °C.

Turning to `Cc1csc(NC(=O)C2CCNCC2)n1`, the melting point is 189 to 191 °C. To `N#CCS(=O)(=O)c1cc(Cl)ccc1Cl` belongs 114 to 116 °C; to `O=c1[nH]cc(N2CCOCC2)c(=O)[nH]1`, 304 to 306 °C. To `CCSc1ccc(C(=O)O)cc1` belongs 145 to 147 °C; to `Nc1c(F)cccc1Oc1ccccc1`, 51 to 53 °C; to `COc1ccc(C)cc1C(=O)CBr`, 73 to 75 °C. The result for `N#Cc1ccc2cc(C(=O)O)ccc2c1` reads 279 to 281 °C; that for `Cc1cc(C(=O)O)c(C)n1Cc1ccco1`, 170 to 172 °C. In turn, `Nc1nc(Cc2ccccc2Br)cs1` showed a melting point of 115 to 117 °C. On to `O=C(O)c1cc(Cl)ncc1[N+](=O)[O-]`, for which the melting point fell in the range of 178 to 180 °C.

The term melting point denotes the temperature of the solid-liquid transition.
